{
  "source": "paper PMC7316778",
  "about": "(Nature Communications, 2020)",
  "key": {"FGFR3 K650E": {"biological_target": "FGFR3 K650E (Homo sapiens, UniProt P22607, K650E)", "assay": "SelectScreen kinase assay", "conditions": "for Inhibition at 1 µM (%): FGFR3 K650E, ZLYTE, ATP Km app"}, "CDK7/cyclin H/MNAT1": {"biological_target": "CDK7/cyclin H/MNAT1 (Homo sapiens, UniProt P50613)", "assay": "SelectScreen kinase assay"}, "MAP3K8 (COT)": {"biological_target": "MAP3K8 (COT) (Homo sapiens, UniProt P41279)", "assay": "SelectScreen kinase assay"}, "LYN A": {"biological_target": "LYN A (Homo sapiens, UniProt P07948)", "sequence (P07948 whole entry)": "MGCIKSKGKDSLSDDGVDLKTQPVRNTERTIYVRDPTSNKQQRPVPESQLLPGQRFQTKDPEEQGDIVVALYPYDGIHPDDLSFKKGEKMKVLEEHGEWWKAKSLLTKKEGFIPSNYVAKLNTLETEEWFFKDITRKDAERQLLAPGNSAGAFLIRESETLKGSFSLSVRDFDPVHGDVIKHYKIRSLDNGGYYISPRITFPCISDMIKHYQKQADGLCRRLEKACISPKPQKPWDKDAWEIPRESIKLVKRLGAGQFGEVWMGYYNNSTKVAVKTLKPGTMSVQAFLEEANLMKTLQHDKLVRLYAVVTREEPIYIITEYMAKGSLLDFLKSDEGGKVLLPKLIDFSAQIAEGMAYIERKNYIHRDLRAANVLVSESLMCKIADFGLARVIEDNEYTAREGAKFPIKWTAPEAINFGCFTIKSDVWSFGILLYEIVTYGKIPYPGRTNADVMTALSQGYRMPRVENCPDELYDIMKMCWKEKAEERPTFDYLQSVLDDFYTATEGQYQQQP", "assay": "SelectScreen kinase assay"}, "FYN": {"biological_target": "FYN (Homo sapiens, UniProt P06241)", "sequence (P06241 whole entry)": "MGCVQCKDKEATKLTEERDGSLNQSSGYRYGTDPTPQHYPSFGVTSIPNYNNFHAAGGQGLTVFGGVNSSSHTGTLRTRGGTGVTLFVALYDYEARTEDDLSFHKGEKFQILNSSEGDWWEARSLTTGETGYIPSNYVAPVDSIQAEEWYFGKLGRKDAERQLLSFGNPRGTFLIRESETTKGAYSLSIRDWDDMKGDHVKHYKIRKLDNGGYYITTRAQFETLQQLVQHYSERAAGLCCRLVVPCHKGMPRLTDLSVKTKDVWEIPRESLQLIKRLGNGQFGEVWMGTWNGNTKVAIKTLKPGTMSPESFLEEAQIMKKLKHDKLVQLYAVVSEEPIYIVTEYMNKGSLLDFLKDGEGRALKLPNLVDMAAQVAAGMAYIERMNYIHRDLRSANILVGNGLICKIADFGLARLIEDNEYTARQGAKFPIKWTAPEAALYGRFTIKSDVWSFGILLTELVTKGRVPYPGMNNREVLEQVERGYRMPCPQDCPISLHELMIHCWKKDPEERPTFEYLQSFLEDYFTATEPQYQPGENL", "assay": "SelectScreen kinase assay"}, "PRKCZ (PKC zeta)": {"biological_target": "T1, PRKCZ (PKC zeta) (Homo sapiens, UniProt Q05513)", "T1 sequence (Q05513 1-592)": "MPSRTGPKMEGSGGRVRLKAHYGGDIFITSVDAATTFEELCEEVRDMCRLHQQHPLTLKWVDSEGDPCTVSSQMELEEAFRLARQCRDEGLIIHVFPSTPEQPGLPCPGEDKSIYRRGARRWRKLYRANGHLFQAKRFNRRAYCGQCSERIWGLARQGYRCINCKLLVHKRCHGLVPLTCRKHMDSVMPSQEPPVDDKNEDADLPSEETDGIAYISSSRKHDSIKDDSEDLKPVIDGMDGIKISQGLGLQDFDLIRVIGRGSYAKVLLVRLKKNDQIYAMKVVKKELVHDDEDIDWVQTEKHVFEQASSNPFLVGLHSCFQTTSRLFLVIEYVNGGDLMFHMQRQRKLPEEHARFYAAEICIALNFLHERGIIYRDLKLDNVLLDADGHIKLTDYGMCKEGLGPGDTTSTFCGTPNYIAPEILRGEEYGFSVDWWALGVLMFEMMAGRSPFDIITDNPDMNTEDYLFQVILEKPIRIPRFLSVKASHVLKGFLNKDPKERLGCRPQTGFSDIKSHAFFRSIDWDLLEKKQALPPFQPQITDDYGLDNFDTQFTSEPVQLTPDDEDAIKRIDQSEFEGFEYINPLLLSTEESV", "assay": "SelectScreen kinase assay", "conditions": "for Inhibition at 1 µM (%): PRKCZ (PKC zeta), ZLYTE, ATP Km app"}, "FGR": {"biological_target": "FGR (Homo sapiens, UniProt P09769)", "assay": "SelectScreen kinase assay"}, "MAP3K14 (NIK)": {"biological_target": "MAP3K14 (NIK) (Homo sapiens, UniProt Q99558)", "sequence (Q99558 whole entry)": "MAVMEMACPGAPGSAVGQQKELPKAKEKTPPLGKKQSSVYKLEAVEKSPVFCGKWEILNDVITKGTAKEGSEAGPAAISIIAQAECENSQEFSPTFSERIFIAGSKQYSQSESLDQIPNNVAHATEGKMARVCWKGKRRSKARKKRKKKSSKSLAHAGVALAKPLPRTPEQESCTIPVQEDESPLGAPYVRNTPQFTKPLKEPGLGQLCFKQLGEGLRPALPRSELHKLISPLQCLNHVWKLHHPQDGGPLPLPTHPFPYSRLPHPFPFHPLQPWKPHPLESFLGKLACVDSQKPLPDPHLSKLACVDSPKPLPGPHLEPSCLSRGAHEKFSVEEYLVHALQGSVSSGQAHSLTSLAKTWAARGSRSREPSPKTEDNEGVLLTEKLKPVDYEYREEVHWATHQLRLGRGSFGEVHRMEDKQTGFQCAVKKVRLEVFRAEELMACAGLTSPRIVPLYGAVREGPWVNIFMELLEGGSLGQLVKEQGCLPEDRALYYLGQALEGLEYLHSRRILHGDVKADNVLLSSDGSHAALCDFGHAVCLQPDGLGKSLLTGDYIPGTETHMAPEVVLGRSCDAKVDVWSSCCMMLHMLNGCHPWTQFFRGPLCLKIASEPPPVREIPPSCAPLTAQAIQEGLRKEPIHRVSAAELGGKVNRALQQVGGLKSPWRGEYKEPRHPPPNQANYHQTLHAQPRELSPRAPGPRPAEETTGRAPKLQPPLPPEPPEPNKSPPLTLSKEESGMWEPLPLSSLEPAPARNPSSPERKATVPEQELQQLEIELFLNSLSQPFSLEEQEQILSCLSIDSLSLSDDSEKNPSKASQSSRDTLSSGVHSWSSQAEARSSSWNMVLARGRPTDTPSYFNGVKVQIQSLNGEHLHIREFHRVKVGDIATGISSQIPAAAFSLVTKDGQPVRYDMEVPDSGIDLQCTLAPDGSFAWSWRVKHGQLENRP", "assay": "SelectScreen kinase assay"}, "[1]": {"biological_target": "PIK3CA/PIK3R1 (p110a/p85a) (Homo sapiens, UniProt P42336)", "sequence (P42336 whole entry)": "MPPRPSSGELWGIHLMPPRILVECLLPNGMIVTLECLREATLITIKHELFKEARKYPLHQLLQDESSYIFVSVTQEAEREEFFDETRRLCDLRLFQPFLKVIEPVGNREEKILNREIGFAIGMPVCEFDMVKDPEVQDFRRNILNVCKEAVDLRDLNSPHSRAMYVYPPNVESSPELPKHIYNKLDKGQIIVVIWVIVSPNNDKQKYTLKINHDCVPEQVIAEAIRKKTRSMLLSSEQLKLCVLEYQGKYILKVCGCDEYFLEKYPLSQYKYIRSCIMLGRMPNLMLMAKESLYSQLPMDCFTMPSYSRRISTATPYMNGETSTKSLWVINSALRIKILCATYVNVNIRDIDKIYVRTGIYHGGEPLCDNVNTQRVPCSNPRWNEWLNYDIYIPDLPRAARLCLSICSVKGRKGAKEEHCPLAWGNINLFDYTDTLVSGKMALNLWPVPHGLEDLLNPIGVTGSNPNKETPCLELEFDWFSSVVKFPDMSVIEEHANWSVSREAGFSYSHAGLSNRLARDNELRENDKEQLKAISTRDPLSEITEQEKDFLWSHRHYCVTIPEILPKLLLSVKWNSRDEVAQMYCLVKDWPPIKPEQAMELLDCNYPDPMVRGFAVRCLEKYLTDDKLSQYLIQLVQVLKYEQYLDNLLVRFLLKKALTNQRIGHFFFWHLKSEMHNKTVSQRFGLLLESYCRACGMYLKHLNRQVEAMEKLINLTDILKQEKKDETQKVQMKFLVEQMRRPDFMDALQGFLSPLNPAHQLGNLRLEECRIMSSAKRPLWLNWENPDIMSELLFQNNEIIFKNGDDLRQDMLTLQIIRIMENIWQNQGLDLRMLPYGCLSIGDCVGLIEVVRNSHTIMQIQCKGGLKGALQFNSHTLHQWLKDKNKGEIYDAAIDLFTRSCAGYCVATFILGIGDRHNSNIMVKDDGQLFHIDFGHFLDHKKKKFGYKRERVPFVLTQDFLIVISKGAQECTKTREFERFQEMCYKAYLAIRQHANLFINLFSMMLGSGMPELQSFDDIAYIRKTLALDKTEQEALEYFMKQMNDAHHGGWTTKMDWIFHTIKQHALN", "sequence (P27986 whole entry partner)": "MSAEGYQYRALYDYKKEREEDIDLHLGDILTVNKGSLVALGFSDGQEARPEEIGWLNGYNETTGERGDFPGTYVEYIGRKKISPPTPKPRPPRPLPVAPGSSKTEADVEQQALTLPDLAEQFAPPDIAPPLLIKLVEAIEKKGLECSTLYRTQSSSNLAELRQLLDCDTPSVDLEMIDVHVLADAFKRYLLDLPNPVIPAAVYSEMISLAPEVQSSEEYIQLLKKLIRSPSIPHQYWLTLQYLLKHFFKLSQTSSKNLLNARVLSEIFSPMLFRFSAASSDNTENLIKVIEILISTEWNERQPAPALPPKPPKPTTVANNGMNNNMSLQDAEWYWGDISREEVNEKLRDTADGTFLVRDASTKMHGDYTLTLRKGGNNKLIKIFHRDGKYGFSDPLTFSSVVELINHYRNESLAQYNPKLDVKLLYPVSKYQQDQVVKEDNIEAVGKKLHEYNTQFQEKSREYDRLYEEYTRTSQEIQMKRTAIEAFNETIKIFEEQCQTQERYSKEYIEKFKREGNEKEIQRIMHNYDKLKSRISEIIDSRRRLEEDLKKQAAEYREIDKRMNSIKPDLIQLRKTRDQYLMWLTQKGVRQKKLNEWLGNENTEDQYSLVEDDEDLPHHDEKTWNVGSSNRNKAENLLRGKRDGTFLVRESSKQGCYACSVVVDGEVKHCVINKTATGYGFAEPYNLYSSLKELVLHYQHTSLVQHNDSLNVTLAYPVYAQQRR", "assay": "SelectScreen kinase assay", "conditions": "for Inhibition at 1 µM (%): PIK3CA/PIK3R1 (p110 alpha/p85 alpha), Adapta, ATP Km app"}, "FES^WT": {"biological_target": "T2, FES^WT (Homo sapiens, UniProt P07332)", "T2 construct": "human FES cDNA encoding residues 448–822 or human FER cDNA encoding residues 448–820 was amplified by PCR; made in house; host or cells: E. coli BL21(DE3), co-expressing YopH phosphatase", "assay": "In vitro TR-FRET kinase assay", "assay_type": "biochemical", "conditions": "TR-FRET assay, 5 µM ATP; n = 3; read-out: pIC50 FES^WT (converted)", "procedure": "All measurements were performed in triplicate."}, "PRKX": {"biological_target": "PRKX (Homo sapiens, UniProt P51817)", "assay": "SelectScreen kinase assay"}, "TAOK2 (TAO1)": {"biological_target": "TAOK2 (TAO1) (Homo sapiens, UniProt Q9UL54)", "sequence (Q9UL54 whole entry)": "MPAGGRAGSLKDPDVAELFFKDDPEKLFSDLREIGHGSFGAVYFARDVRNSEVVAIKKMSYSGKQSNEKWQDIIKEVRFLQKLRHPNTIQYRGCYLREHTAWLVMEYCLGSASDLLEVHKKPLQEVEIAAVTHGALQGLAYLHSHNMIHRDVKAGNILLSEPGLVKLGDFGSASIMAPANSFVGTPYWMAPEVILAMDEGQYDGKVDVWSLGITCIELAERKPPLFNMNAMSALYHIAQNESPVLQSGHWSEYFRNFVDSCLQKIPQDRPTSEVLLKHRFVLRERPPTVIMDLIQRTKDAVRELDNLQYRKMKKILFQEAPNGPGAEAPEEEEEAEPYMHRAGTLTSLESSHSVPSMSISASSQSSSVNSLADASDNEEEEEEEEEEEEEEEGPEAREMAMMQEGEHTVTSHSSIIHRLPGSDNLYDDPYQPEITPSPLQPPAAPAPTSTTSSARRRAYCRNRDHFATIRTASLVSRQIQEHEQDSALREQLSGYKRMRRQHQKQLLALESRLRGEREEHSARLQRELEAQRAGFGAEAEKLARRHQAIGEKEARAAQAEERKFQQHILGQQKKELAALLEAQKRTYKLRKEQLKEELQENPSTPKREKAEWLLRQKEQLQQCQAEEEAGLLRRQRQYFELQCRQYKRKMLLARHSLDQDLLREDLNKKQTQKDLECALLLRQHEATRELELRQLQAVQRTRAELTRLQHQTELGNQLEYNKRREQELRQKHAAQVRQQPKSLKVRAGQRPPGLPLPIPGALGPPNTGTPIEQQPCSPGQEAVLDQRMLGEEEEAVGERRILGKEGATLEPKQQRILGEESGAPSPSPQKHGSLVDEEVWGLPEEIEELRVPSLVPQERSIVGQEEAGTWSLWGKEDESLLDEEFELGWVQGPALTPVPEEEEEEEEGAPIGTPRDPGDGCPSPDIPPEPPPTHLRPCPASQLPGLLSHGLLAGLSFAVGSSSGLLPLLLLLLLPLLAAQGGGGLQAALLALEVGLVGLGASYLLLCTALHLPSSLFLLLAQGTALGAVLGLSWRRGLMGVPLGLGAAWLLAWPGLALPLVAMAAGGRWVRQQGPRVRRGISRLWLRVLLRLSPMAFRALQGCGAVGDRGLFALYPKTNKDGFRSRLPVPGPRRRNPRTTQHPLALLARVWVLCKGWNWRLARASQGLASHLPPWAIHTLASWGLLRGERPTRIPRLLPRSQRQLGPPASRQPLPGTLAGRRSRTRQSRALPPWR", "assay": "SelectScreen kinase assay"}, "[2]": {"conditions": "1 h, 1 μM WEL028, 1 h preincubation"}, "[3]": {"conditions": "1 µM, ZLYTE, ATP Km app, listed as WEL028, 1 µM"}},
  "note": "Several values for one entry are separate records, joined by “and”; a condition that tells them apart may be missing. Identical values can stand only once. Like-named read-outs stand apart in the source and are kept apart here.",
  "data": [
    {"smiles": "C#CCOc1ccc(Nc2ncc(Cl)c(Nc3ccccc3NC(=O)C=C)n2)c(OC)c1", "note": "[Compound 6]", "values": [
      {"measurement": "inhibition at 1 µM", "setting": "FGFR3 K650E; [2]", "value": 8, "unit": "%"},
      {"measurement": "Inhibition at 1 µM (%)", "setting": "FGFR3 K650E", "value": 12, "unit": "%"},
      {"measurement": "Inhibition at 1 µM (%)", "setting": "FGFR3 K650E; listed as WEL028, 1 µM", "value": 4, "unit": "%"},
      {"measurement": "inhibition at 1 µM", "setting": "CDK7/cyclin H/MNAT1; [2]", "value": 6, "unit": "%"},
      {"measurement": "Inhibition at 1 µM (%)", "setting": "CDK7/cyclin H/MNAT1; CDK7/cyclin H/MNAT1, 1 µM, Adapta, ATP Km app, listed as WEL028, 1 µM", "value": "2% and 11%"},
      {"measurement": "IC50", "setting": "MAP3K8 (COT)", "value": 251, "unit": "nM"},
      {"measurement": "inhibition at 1 µM", "setting": "MAP3K8 (COT); [2]", "value": 77, "unit": "%"},
      {"measurement": "inhibition at 10 µM", "setting": "MAP3K8 (COT); 1 h, log[inhibitor] (M) -5.00, ZLYTE, ATP 100", "value": 100, "unit": "%"},
      {"measurement": "inhibition at 3.311 µM", "setting": "MAP3K8 (COT); 1 h, log[inhibitor] (M) -5.48, ZLYTE, ATP 100", "value": 101, "unit": "%"},
      {"measurement": "inhibition at 1.122 µM", "setting": "MAP3K8 (COT); 1 h, log[inhibitor] (M) -5.95, ZLYTE, ATP 100", "value": 95, "unit": "%"},
      {"measurement": "inhibition at 0.3715 µM", "setting": "MAP3K8 (COT); 1 h, log[inhibitor] (M) -6.43, ZLYTE, ATP 100", "value": 67, "unit": "%"},
      {"measurement": "inhibition at 0.123 µM", "setting": "MAP3K8 (COT); 1 h, log[inhibitor] (M) -6.91, ZLYTE, ATP 100", "value": 46, "unit": "%"},
      {"measurement": "inhibition at 0.04074 µM", "setting": "MAP3K8 (COT); 1 h, log[inhibitor] (M) -7.39, ZLYTE, ATP 100", "value": 34, "unit": "%"},
      {"measurement": "inhibition at 0.0138 µM", "setting": "MAP3K8 (COT); 1 h, log[inhibitor] (M) -7.86, ZLYTE, ATP 100", "value": 24, "unit": "%"},
      {"measurement": "inhibition at 0.001514 µM", "setting": "MAP3K8 (COT); 1 h, log[inhibitor] (M) -8.82, ZLYTE, ATP 100", "value": 15, "unit": "%"},
      {"measurement": "inhibition at 0.0004898 µM", "setting": "MAP3K8 (COT); 1 h, log[inhibitor] (M) -9.31, ZLYTE, ATP 100", "value": 17, "unit": "%"},
      {"measurement": "inhibition at 0.004571 µM", "setting": "MAP3K8 (COT); 1 h, log[inhibitor] (M) -[…], ZLYTE, ATP 100", "value": 17, "unit": "%"},
      {"measurement": "Inhibition at 1 µM (%)", "setting": "MAP3K8 (COT); MAP3K8 (COT), 1 µM, ZLYTE, ATP 100, listed as WEL028, 1 µM", "value": 82, "unit": "%"},
      {"measurement": "inhibition at 1 µM", "setting": "MAP3K8 (COT); read-out: Inhibition at 1 µM (%), MAP3K8 (COT), 1 µM, ZLYTE, ATP 100", "value": 73, "unit": "%"},
      {"measurement": "inhibition at 1 µM", "setting": "LYN A; [2]", "value": 5, "unit": "%"},
      {"measurement": "Inhibition at 1 µM (%)", "setting": "LYN A; LYN A, 1 µM, ZLYTE, ATP Km app, listed as WEL028, 1 µM", "value": 6, "unit": "%"},
      {"measurement": "inhibition at 1 µM", "setting": "LYN A; read-out: Inhibition at 1 µM (%), LYN A, 1 µM, ZLYTE, ATP Km app", "value": 5, "unit": "%"},
      {"measurement": "inhibition at 1 µM", "setting": "FYN; [2]", "value": 4, "unit": "%"},
      {"measurement": "Inhibition at 1 µM (%)", "setting": "FYN; FYN, 1 µM, ZLYTE, ATP Km app, listed as WEL028, 1 µM", "value": "0% and 8%"},
      {"measurement": "inhibition at 1 µM", "setting": "PRKCZ (PKC zeta); [2]", "value": -1, "unit": "%"},
      {"measurement": "Inhibition at 1 µM (%)", "setting": "PRKCZ (PKC zeta)", "value": 3, "unit": "%"},
      {"measurement": "Inhibition at 1 µM (%)", "setting": "PRKCZ (PKC zeta); listed as WEL028, 1 µM", "value": -5, "unit": "%"},
      {"measurement": "inhibition at 1 µM", "setting": "FGR; [2]", "value": 10, "unit": "%"},
      {"measurement": "Inhibition at 1 µM (%)", "setting": "FGR; FGR, 1 µM, ZLYTE, ATP Km app, listed as WEL028, 1 µM", "value": 12, "unit": "%"},
      {"measurement": "inhibition at 1 µM", "setting": "FGR; read-out: Inhibition at 1 µM (%), FGR, 1 µM, ZLYTE, ATP Km app", "value": 7, "unit": "%"},
      {"measurement": "inhibition at 1 µM", "setting": "MAP3K14 (NIK); [2]", "value": 3, "unit": "%"},
      {"measurement": "Inhibition at 1 µM (%)", "setting": "MAP3K14 (NIK); MAP3K14 (NIK), 1 µM, LanthaScreen Binding, listed as WEL028, 1 µM", "value": "7% and -1%"},
      {"measurement": "inhibition at 1 µM", "setting": "[1]; [2]", "value": 14, "unit": "%"},
      {"measurement": "Inhibition at 1 µM (%)", "setting": "[1]", "value": 19, "unit": "%"},
      {"measurement": "Inhibition at 1 µM (%)", "setting": "[1]; listed as WEL028, 1 µM", "value": 9, "unit": "%"},
      {"measurement": "IC50", "setting": "FES^WT", "value": "> 3000", "unit": "nM"},
      {"measurement": "Inhibition at 1 µM (%)", "setting": "PRKX; [3]", "value": "-6% and 0%"},
      {"measurement": "inhibition at 1 µM", "setting": "PRKX; [2]", "value": -3, "unit": "%"},
      {"measurement": "Inhibition at 1 µM (%)", "setting": "TAOK2 (TAO1); [3]", "value": "-1% and 9%"},
      {"measurement": "inhibition at 1 µM", "setting": "TAOK2 (TAO1); [2]", "value": 4, "unit": "%"}
    ]}
  ]
}
